Measurements taken from patent publication US10273235B2, “Compositions and methods for inhibiting β-lactamase” (LegoChem Biosciences, Inc., priority 2015, dated 2019).
Where a name gives a salt, the structure may show the parent alone.

What was measured:
[1] = tested on: K. pneumoniae clinical strains expressing β-lactamases; experiment: BLI potentiation MIC, panel of K. pneumoniae clinical strains expressing β-lactamases (isoxazoline vs. isoxazole); format: cell-based; settings: in combination with Meropenem and LCB10-0200; Table 12
Experimental: MIC90 (μg/mL) is the lowest concentration of an antibiotic that will inhibit the visible growth of 90% of microorganisms after incubation as compared with a control group to which the antibiotic is not treated.
MIC values were measured by the broth microdilution method developed by the Clinical and Laboratory Standards Institute (CLSI) (see CLSI M07-A9, Methods for Dilution Antimicrobial Susceptibility Test for Bacteria that Grow Aerobically; Approved Standard-Ninth Edition (2012): CLSI, Villanova, Pa.). The in vitro antibacterial activity was measured with respect to the following 9 clinical isolates: P. aeruginosa (3 strains); K. pneumoniae (6 strains). The in vitro antibacterial activity of selected compounds was measured with respect to the following 15 clinical isolates: K. pneumoniae (15 strains).

[2] = target: T1, NDM-1 β-lactamase (class B) (Klebsiella pneumoniae, UniProt C7C422); experiment: Inhibitory activity against β-lactamases (nitrocefin), NDM-1; format: biochemical; settings: 100 μM nitrocefin, 30° C., pH 6.8
T1 construct: MICs of bacterial strains used for extraction of enzymes; endogenous in cells; host or cells: bacterial strain carrying NDM-1 (E. coli according to the earlier reading)
Experimental: (§1) More diluted stocks were prepared as necessary. Enzyme activity was determined by monitoring the change of absorbance at 492 nm using the characteristic molecular extinction coefficient (Δε492=17,400 M^−1 cm^−1) of nitrocefin by a Shimazu UV-1650PC spectrophotometer. The nitrocefin was purchased from OXOID. Kinetic measurements were run at 30° C. in 10 mM MES[2-(N-morpholino)ethanesulfonic acid]buffer (pH 6.8) or 10 mM MES[2-(N-morpholino)ethanesulfonic acid] buffer (pH 6.8), […] BSA and 50 mM sodium bicarbonate. Reactions were performed in 2.5 mL cuvettes with 100 μM nitrocefin and initiated by adding 1.5 nM to 2.5 nM enzyme. The first 180 s of each reaction was used to measure initial rates. Data were evaluated using Microsoft Excel. Concentration dependent inhibition of enzyme was measured using different concentrations of inhibitors resulting from two-fold dilution series. Reaction progress at every concentration of inhibitor was measured in triplicates. IC50 values were calculated using 4-parameter log fits using XL Fit curve fitting software (www.idbs.com) for Excel using the following equation:
(§2) [formula] where y is the remaining enzyme activity (in %) and x is the corresponding concentration. he fitted IC50 parameter is the relative IC50, and is defined as the concentration giving a response half way between the fitted top (B) and bottom (A) of the curve.

[3] = target: T2, CMY-10 β-lactamase (class C) (Klebsiella aerogenes, UniProt Q99QC1); experiment: Inhibitory activity against β-lactamases (nitrocefin), CMY-10; format: biochemical
T2 construct: MICs of bacterial strains used for extraction of enzymes; endogenous in cells
Experimental: as §1, §2

[4] = target: T3, OXA-48 β-lactamase (class D) (Klebsiella pneumoniae, UniProt Q6XEC0); experiment: Inhibitory activity against β-lactamases (nitrocefin), OXA-48; format: biochemical; settings: 100 μM nitrocefin, 30° C., pH 6.8
T3 construct: MICs of bacterial strains used for extraction of enzymes; endogenous in cells; host or cells: bacterial strain carrying OXA-48 (E. coli according to the earlier reading)
Experimental: as §1, §2

[5] = target: KPC-3 β-lactamase (class A) (Klebsiella pneumoniae, UniProt Q9F663, H272Y); experiment: Inhibitory activity against β-lactamases (nitrocefin), KPC-3; format: biochemical, K. pneumoniae
Experimental: as §1, §2

T1 sequence (C7C422 29-270, looked up): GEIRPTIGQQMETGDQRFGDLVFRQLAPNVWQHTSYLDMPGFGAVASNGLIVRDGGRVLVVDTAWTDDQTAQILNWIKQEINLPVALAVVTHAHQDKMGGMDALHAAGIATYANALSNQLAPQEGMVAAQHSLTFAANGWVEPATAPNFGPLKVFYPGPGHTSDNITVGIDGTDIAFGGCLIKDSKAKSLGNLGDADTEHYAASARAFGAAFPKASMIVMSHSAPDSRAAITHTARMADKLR
T2 sequence (Q99QC1 24-382): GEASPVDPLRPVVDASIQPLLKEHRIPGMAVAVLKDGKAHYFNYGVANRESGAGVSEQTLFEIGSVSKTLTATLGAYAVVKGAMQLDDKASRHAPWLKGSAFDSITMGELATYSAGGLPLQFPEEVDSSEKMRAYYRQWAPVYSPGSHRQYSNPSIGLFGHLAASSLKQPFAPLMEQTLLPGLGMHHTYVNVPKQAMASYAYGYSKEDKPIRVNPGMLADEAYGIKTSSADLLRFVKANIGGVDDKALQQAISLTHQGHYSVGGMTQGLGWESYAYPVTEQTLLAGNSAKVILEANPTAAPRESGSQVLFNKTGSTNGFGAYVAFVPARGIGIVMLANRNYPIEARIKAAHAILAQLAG
T3 sequence (Q6XEC0 23-265, looked up): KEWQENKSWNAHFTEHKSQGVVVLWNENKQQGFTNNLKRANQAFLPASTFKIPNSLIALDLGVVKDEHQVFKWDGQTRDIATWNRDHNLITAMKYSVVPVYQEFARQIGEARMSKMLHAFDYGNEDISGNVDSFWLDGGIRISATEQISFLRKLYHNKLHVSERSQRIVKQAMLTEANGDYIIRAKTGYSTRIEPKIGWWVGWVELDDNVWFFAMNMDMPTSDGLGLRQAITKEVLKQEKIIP
Sequence of KPC-3 β-lactamase (class A) (Q9F663 25-293 H272Y): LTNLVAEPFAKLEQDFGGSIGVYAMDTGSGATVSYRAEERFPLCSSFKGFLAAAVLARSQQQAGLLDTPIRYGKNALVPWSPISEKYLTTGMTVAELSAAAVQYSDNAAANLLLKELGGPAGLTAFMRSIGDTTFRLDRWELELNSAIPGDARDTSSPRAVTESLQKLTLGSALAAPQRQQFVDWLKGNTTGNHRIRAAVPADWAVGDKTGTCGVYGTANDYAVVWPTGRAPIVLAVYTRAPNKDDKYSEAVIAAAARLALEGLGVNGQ

Compound: NC[C@H]1CC([C@@H]2CC[C@@H]3CN2C(=O)N3OS(=O)(=O)O)=NO1 [Example 15, [(2S)-2-[(5R)-5-(aminomethyl)-4,5-dihydroisoxazol-3-yl]-7-oxo-1,6-diazabicyclo[3.2.1]octan-6-yl] hydrogen sulfate]
- coverage on various β-lactamases compared with Cubist-1 [1]: much broader coverage on various β-lactamases than Cubist-1
- IC50 [2]: 1650 µM
- IC50 [3]: 0.123 µM
- IC50 [4]: 6.42 µM
- IC50 [5]: 3.03 µM
